The target of the experiment is Tyrosine-protein kinase Lck (Homo sapiens, UniProt P06239). The experiment can be described thus: Ability to inhibit autophosphorylation of immunopurified p56Ick.
Chain of Tyrosine-protein kinase Lck (P06239 whole entry): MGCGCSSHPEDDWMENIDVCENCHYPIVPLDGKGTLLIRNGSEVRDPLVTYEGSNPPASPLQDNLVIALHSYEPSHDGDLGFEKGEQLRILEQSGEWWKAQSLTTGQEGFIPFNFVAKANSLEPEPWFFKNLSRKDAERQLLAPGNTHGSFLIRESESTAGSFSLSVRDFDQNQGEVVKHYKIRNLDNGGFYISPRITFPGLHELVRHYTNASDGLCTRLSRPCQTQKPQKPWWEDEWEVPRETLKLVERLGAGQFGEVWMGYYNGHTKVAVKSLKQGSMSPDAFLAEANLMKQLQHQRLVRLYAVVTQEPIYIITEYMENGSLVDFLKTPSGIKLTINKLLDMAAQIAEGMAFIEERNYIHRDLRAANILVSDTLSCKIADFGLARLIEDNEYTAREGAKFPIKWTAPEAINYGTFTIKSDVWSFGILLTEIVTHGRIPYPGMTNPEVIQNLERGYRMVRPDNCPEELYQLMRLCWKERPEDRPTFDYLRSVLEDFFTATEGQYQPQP

`N=c1oc2cc(O)ccc2cc1C(N)=O` displayed an IC50 above 2000 µM. Compound `N=c1oc2ccccc2cc1C(N)=O` came in with an IC50 of 1500 µM.

`N#C/C(=C\c1ccc(O)c(O)c1)C(N)=O` returned an IC50 of 22 µM. The compound `N=c1oc2c(O)cccc2cc1C(N)=O` displayed an IC50 of 100 µM. Compared with the last compound, the IC50 is about 4.5-fold higher. As for `NC(=O)c1cnc2cc(O)c(O)cc2c1`, 610 µM corresponded to half-maximal inhibition (IC50). Against the preceding compound, the IC50 is about 6.1-fold higher. `N#C/C(=C\c1ccc(O)cc1)C(N)=O` showed an IC50 of 1000 µM. Against the preceding compound, the IC50 is about 1.6-fold higher. The compound `N=c1oc2c(O)c(O)ccc2cc1C(N)=O` showed an IC50 of 750 µM. With `N=c1oc2cc(O)c(O)cc2cc1C(N)=O`, the half-inhibitory concentration (IC50) is above 2000 µM. In turn, `COC(=O)c1cc2ccc(O)c(O)c2cn1` returned an IC50 of 0.2 µM. That is a sub-micromolar value. `N#C/C(=C\c1cc(O)c(O)c(O)c1)C(N)=O`: the midpoint of inhibition, the IC50, lay at 2000 µM. Compared with the last compound, the IC50 is about 10000-fold higher. `N=c1oc2ccc(O)cc2cc1C(N)=O` registered an IC50 of 100 µM. As to `N#C/C(=C\c1cccc(O)c1)C(N)=O`, 1500 µM corresponded to half-maximal inhibition (IC50). Under `NC(=O)c1ccc2cc(O)c(O)cc2c1` stands 26 µM; under `N#C/C(=C\c1cc(O)cc(O)c1)C(N)=O`, 500 µM; under `COC(=O)c1ccc2c(O)c(O)ccc2c1`, 25 µM.

The values above are taken from ChEMBL document CHEMBL1126592, “Bicyclic compounds as ring-constrained inhibitors of protein-tyrosine kinase p56lck” (J Med Chem, 1993).
